pIC50: −log10 of the molar value.
Target: T1, IL-17A/A (Homo sapiens, UniProt Q16552)
T1 construct: purchased Genscript Z03228
T1 sequence (Q16552 24-155): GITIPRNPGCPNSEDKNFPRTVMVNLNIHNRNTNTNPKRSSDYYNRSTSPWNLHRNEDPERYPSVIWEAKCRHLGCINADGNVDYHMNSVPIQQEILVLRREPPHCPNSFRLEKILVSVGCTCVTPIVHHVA
Assay: IL-17A/A HEK-Blue cell assay
Assay type: cell-based
Conditions: HEK-Blue IL-17A reporter cell line (HEK 293), IL-17A/A stimulation, 20 hours incubation, SEAP read at A630
Outline: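 IC50 came from a 4-parameter fit of SEAP read at A630 (Quanti-Blue). Compound was titrated to a top final concentration of 10, 1 or 0.3 uM with 0.1% final DMSO and added just before IL-17A/A. Incubation lasted 20 hours in HEK293 cells engineered with IL-17RA, IL-17RC, Act1 and an NFκB-SEAP reporter.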

pIC50 | Compound
6.00 to 7.00 | CCn1nccc1C(=O)N[C@H](c1cn2nc(CC3CC(F)(F)CNC3=O)ccc2n1)C(C1CC1)C1CC1 (single isomer, unassigned) [Compound 28]
6.00 to 7.00 | CCn1nccc1C(=O)NC(c1cn2ncc(CC3CC(F)(F)CNC3=O)cc2n1)C1CCC(C)CC1 (single isomer, unassigned) [Compound 211]
6.00 to 7.00 | CC[C@@H](c1ccc(F)cc1)C(NC(=O)c1ccnn1CC)c1cn2nc(CC3CC(F)(F)CNC3=O)ccc2n1 (single isomer, unassigned) [Compound 31]
6.00 to 7.00 | CCn1nccc1C(=O)N[C@H](c1cn2nc(CC3CC(F)(F)CNC3=O)c(C)cc2n1)C1CCC(F)(F)CC1 (single isomer, unassigned) [Compound 76]
6.00 to 7.00 | CCn1nccc1C(=O)N[C@H](c1cn2nc(CC3C[C@@H](C(F)(F)F)CNC3=O)ccc2n1)C1CC2(C1)CC(F)(F)C2 (single isomer, unassigned) [Compound 173]
6.00 to 7.00 | CCc1nonc1C(=O)N[C@H](c1cn2nc(CC3C[C@@H](C(F)(F)F)CNC3=O)ccc2n1)C1CCC(F)(F)CC1 (stereo partly drawn) [Compound 112, N-((1S)-(4,4-difluorocyclohexyl)(6-(((5R)-2-oxo-5-(trifluoromethyl)piperidin-3-yl)methyl)imidazo[1,2-b]pyridazin-2-yl)methyl)-4-ethyl-1,2,5-oxadiazole-3-carboxamide]
< 6.00 | CCc1nonc1C(=O)N[C@H](c1cn2nc(C[C@H]3CCCNC3=O)ccc2n1)C1CCC(F)(F)CC1 [Compound 37, N—((S)-(4,4-difluorocyclohexyl)(6-(((R)-2-oxopiperidin-3-yl)methyl)imidazo[1,2-b]pyridazin-2-yl)methyl)-4-ethyl-1,2,5-oxadiazole-3-carboxamide]
6.00 to 7.00 | CCn1nccc1C(=O)N[C@H](c1cn2nc(CC3C[C@@H](C(F)(F)F)NC3=O)ccc2n1)C(C1CC1)C1CC1 (single isomer, unassigned) [Compound 8]
< 6.00 | CCn1nccc1C(=O)NC(c1cn2nc(CC3C(=O)NCC4CC43)ccc2n1)C1CCC(C)CC1 (single isomer, unassigned) [Compound 47]
< 6.00 | CCn1nccc1C(=O)NC(c1cn2ncc(CC3CC(F)(F)CNC3=O)cc2n1)C1CCC(C)CC1 (single isomer, unassigned) [Compound 210]
> 7.00 | CCn1nccc1C(=O)N[C@H](c1cn2nc(CC3C[C@H](C(F)(F)F)CNC3=O)ccc2n1)[C@H]1CC[C@H](C)CC1 (stereo partly drawn) [Compound 154, 1-Ethyl-N-((1S)-((1R.4S)-4-methylcyclohexyl)(6-(((5S)-2-oxo-5-(trifluoromethyl)piperidin-3-yl)methyl)imidazo[1,2-b]pyridazin-2-yl)methyl)-1H-pyrazole-5-carboxamide]
6.00 to 7.00 | CCn1nccc1C(=O)N[C@H](c1cn2nc(CC3C(=O)NCC3C(F)(F)F)ccc2n1)C(C1CC1)C1CC1 (single isomer, unassigned) [Compound 44]
6.00 to 7.00 | Cc1nonc1C(=O)N[C@H](c1cn2nc(CC3CCNC3=O)ccc2n1)C1CCCCCC1 (single isomer, unassigned) [Compound 14, N-((1 S)-cycloheptyl(6-((2-oxopyrrolidin-3-yl)methyl)imidazo[1,2-b]pyridazin-2-yl)methyl)-4-methyl-1,2,5-oxadiazole-3-carboxamide]
6.00 to 7.00 | CCc1nonc1C(=O)N[C@H](c1cn2nc(C[C@H]3CCCNC3=O)ccc2n1)C(C1CC1)C1CC1 [Compound 35, N—((S)-2,2-dicyclopropyl-1-(6-(((R)-2-oxopiperidin-3-yl)methyl)imidazo[1,2-b]pyridazin-2-yl)ethyl)-4-ethyl-1,2,5-oxadiazole-3-carboxamide]
6.00 to 7.00 | CCn1nccc1C(=O)N[C@H](c1cn2nc(CC3CC(CC(F)(F)F)CNC3=O)ccc2n1)C1CCC(F)(F)CC1 (single isomer, unassigned) [Compound 66]
< 6.00 | CCn1nccc1C(=O)N[C@H](c1cn2nc(CC3CC(F)(F)CNC3=O)c(C)cc2n1)C1CCC(F)(F)CC1 (single isomer, unassigned) [Compound 77]
6.00 to 7.00 | CCc1nonc1C(=O)N[C@H](c1cn2nc(C[C@H]3C[C@@H](C(F)(F)F)NC3=O)ccc2n1)C(C1CC1)C1CC1 [Compound 20, N—((S)-2,2-dicyclopropyl-1-(6-(((3R,5S)-2-oxo-5-(trifluoromethyl)pyrrolidin-3-yl)methyl)imidazo[1,2-b]pyridazin-2-yl)ethyl)-4-ethyl-1,2,5-oxadiazole-3-carboxamide]

pIC50 | Compound
6.00 to 7.00 | CCn1nccc1C(=O)N[C@H](c1cn2nc(CC3CC(CC(F)(F)F)CNC3=O)ccc2n1)C1CCC(F)(F)CC1 (single isomer, unassigned) [Compound 65]
6.00 to 7.00 | CCn1nccc1C(=O)N[C@H](c1cn2nc(CC3C[C@@H](C(F)(F)F)CNC3=O)ccc2n1)[C@H]1CC[C@H](C)CC1 (stereo partly drawn) [Compound 97, 1-ethyl-N-((1S)-((1R.4S)-4-methylcyclohexyl)(6-(((5R)-2-oxo-5-(trifluoromethyl)piperidin-3-yl)methyl)imidazo[1,2-b]pyridazin-2-yl)methyl)-1H-pyrazole-5-carboxamide]
> 7.00 | CCn1nccc1C(=O)N[C@H](c1cn2nc(CC3C[C@@H](C(F)(F)F)CNC3=O)c(OC(C)C)cc2n1)C1CCC(F)(F)CC1 (stereo partly drawn) [Compound 185, N-((1S)-(4,4-difluorocyclohexyl)(7-isopropoxy-6-(((5R)-2-oxo-5-(trifluoromethyl)piperidin-3-yl)methyl)imidazo[1,2-b]pyridazin-2-yl)methyl)-1-ethyl-1H-pyrazole-5-carboxamide]
> 7.00 | CCn1nccc1C(=O)N[C@H](c1cn2ncc(CC3C[C@@H](C(F)(F)F)NC3=O)cc2n1)[C@H]1CC[C@H](C)CC1 (single isomer, unassigned) [Compound 212]
< 6.00 | CCn1nccc1C(=O)N[C@H](c1cn2nc(CC3C[C@@H](C(F)(F)F)CNC3=O)ccc2n1)C1CCC(F)(F)CC1 (stereo partly drawn) [Compound 193, N-((1S)-(4,4-difluorocyclohexyl)(6-(((5R)-2-oxo-5-(trifluoromethyl)piperidin-3-yl)methyl)imidazo[1,2-b]pyridazin-2-yl)methyl)-1-ethyl-1H-pyrazole-5-carboxamide]
> 7.00 | CCn1nccc1C(=O)N[C@H](c1cn2nc(CC3C[C@@H](C(F)(F)F)NC3=O)ccc2n1)C1CCCCCC1 (single isomer, unassigned) [Compound 5]
< 6.00 | Cn1nc(C(F)F)cc1C(=O)N[C@H](c1cn2nc(CC3C[C@@H](C(F)(F)F)CNC3=O)ccc2n1)C1CCC(F)(F)CC1 (stereo partly drawn) [Compound 129, N-((1S)-(4,4-difluorocyclohexyl)(6-(((5R)-2-oxo-5-(trifluoromethyl)piperidin-3-yl)methyl)imidazo[1,2-b]pyridazin-2-yl)methyl)-3-(difluoromethyl)-1-methyl-1H-pyrazole-5-carboxamide]
< 6.00 | CCn1nccc1C(=O)N[C@H](c1cn2nc(CC3C[C@@H](C(F)(F)F)CNC3=O)ccc2n1)C1CC(C2CC2)(C2CC2)C1 (stereo partly drawn) [Compound 172, N-((1S)-(3,3-dicyclopropylcyclobutyl)(6-(((5R)-2-oxo-5-(trifluoromethyl)piperidin-3-yl)methyl)imidazo[1,2-b]pyridazin-2-yl)methyl)-1-ethyl-1H-pyrazole-5-carboxamide]
< 6.00 | CCn1nccc1C(=O)N[C@H](c1cn2nc(CC3CC(F)(F)CNC3=O)ccc2n1)C(C1CC1)C1CC1 (single isomer, unassigned) [Compound 29]
6.00 to 7.00 | CCn1nccc1C(=O)N[C@H](c1cn2nc(CC3CC(F)(F)CNC3=O)ccc2n1)C1CCC(F)(F)CC1 (single isomer, unassigned) [Compound 25]
< 6.00 | CCn1nccc1C(=O)N[C@H](c1cn2nc(CC3C[C@H](C(F)(F)F)NC3=O)ccc2n1)C1CCC(F)(F)CC1 (single isomer, unassigned) [Compound 23]
6.00 to 7.00 | O=C(N[C@H](c1cn2nc(CC3C[C@@H](C(F)(F)F)CNC3=O)ccc2n1)C1CCC(F)(F)CC1)c1ccnn1C1CC1 (stereo partly drawn) [Compound 137, 1-cyclopropyl-N-((1S)-(4,4-difluorocyclohexyl)(6-(((5R)-2-oxo-5-(trifluoromethyl)piperidin-3-yl)methyl)imidazo[1,2-b]pyridazin-2-yl)methyl)-1H-pyrazole-5-carboxamide]
6.00 to 7.00 | Cc1nocc1C(=O)N[C@H](c1cn2nc(CC3C[C@@H](C(F)(F)F)CNC3=O)ccc2n1)C1CCC(F)(F)CC1 (stereo partly drawn) [Compound 118, N-((1S)-(4,4-difluorocyclohexyl)(6-(((5R)-2-oxo-5-(trifluoromethyl)piperidin-3-yl)methyl)imidazo[1,2-b]pyridazin-2-yl)methyl)-3-methylisoxazole-4-carboxamide]
> 7.00 | O=C(N[C@H](c1cn2nc(CC3C[C@@H](C(F)(F)F)CNC3=O)ccc2n1)[C@@H]1CCCC(F)(F)C1)c1nonc1C1CC1 (stereo partly drawn) [Compound 145, 4-cyclopropyl-N—((S)-((R)-3,3-difluorocyclohexyl)(6-(((5R)-2-oxo-5-(trifluoromethyl)piperidin-3-yl)methyl)imidazo[1,2-b]pyridazin-2-yl)methyl)-1,2,5-oxadiazole-3-carboxamide]
6.00 to 7.00 | CCn1nccc1C(=O)N[C@H](c1cn2nc(CC3C[C@@H](C(F)(F)F)CNC3=O)c(C)cc2n1)C1CCC(F)(F)CC1 (single isomer, unassigned) [Compound 83]
6.00 to 7.00 | CCn1nccc1C(=O)NC(c1cn2ncc(CC3CCC(C(F)(F)F)NC3=O)cc2n1)C1CCC(C)CC1 (single isomer, unassigned) [Compound 214]
